# Reference: PMC2190180 (The Journal of Experimental Medicine, 1976)
# Assays:
# [1] = test system: rabbit peritoneal neutrophils; experiment: Assay of relative migratory; type: cell-based; conditions: for activity relative to F-Met-Leu as stated in running text: rounded in text from Table II; for times as active as F-Met-Leu, experiment of Fig. 1: single representative experiment (Fig. 1)
# [2] = test system: rabbit peritoneal neutrophils; experiment: Test of whether the peptides are chemotactic; type: cell-based; conditions: for nature of induced migration: directed as well as random locomotion
# rabbit neutrophils [3] = type: cell-based; conditions: for induction of lysozyme release at highest concentrations: at concentrations of 1 x 10-~ M or higher (so in the source)
# rabbit neutrophils [4] = type: cell-based; conditions: for beta-Glucuronidase release Relative activity ± SE: Table III, relative to F-Met-Leu = 1.0; for induction of beta-glucuronidase release at highest concentrations: at concentrations of 1 x 10-~ M or higher (so in the source)
# neutrophils = conditions: appears competitive; cited from earlier work
# [5] = test system: rabbit peritoneal neutrophils; conditions: cited from earlier work
molecule,measurement,setting,value
F-Met-Met-Met,activity relative to parent dipeptide F-Met-Met (Results),[1]; chemotactic activity,120- to 150 fold
same,fold more active than the corresponding unformylated peptide,[1]; chemotactic activity,"approximately 20,000 fold"
same,measured mean distance from top of filter to front two PMNs,"[2]; Table I B, above 10^-6 M, below 10^-6 M (uniform), 80 min 37C",56 µm
same,calculated distance for purely random migration (bracketed),"[2]; Table I B, above 10^-6 M, below 10^-7 M",52 µm
same,measured mean distance from top of filter to front two PMNs,"[2]; Table I B, above 10^-6 M, below 10^-7 M, 80 min 37C",48 µm
same,calculated distance for purely random migration (bracketed),"[2]; Table I B, above 10^-6 M, below 10^-8 M",52 µm
same,measured mean distance from top of filter to front two PMNs,"[2]; Table I B, above 10^-6 M, below 10^-8 M, 80 min 37C",34 µm
same,calculated distance for purely random migration (bracketed),"[2]; Table I B, above 10^-6 M, below 10^-9 M",52 µm
same,measured mean distance from top of filter to front two PMNs,"[2]; Table I B, above 10^-6 M, below 10^-9 M, 80 min 37C",38 µm
same,calculated distance for purely random migration (bracketed),"[2]; Table I B, above 10^-7 M, below 10^-6 M",38 µm
same,measured mean distance from top of filter to front two PMNs,"[2]; Table I B, above 10^-7 M, below 10^-6 M, 80 min 37C",60 µm
same,measured mean distance from top of filter to front two PMNs,"[2]; Table I B, above 10^-7 M, below 10^-7 M (uniform), 80 min 37C",34 µm
same,calculated distance for purely random migration (bracketed),"[2]; Table I B, above 10^-7 M, below 10^-8 M",34 µm
same,measured mean distance from top of filter to front two PMNs,"[2]; Table I B, above 10^-7 M, below 10^-8 M, 80 min 37C",36 µm
same,calculated distance for purely random migration (bracketed),"[2]; Table I B, above 10^-7 M, below 10^-9 M",33 µm
same,measured mean distance from top of filter to front two PMNs,"[2]; Table I B, above 10^-7 M, below 10^-9 M, 80 min 37C",34 µm
same,calculated distance for purely random migration (bracketed),"[2]; Table I B, above 10^-8 M, below 10^-6 M",35 µm
same,measured mean distance from top of filter to front two PMNs,"[2]; Table I B, above 10^-8 M, below 10^-6 M, 80 min 37C",62 µm
same,calculated distance for purely random migration (bracketed),"[2]; Table I B, above 10^-8 M, below 10^-7 M",30 µm
same,measured mean distance from top of filter to front two PMNs,"[2]; Table I B, above 10^-8 M, below 10^-7 M, 80 min 37C",47 µm
same,measured mean distance from top of filter to front two PMNs,"[2]; Table I B, above 10^-8 M, below 10^-8 M (uniform), 80 min 37C",30 µm
same,calculated distance for purely random migration (bracketed),"[2]; Table I B, above 10^-8 M, below 10^-9 M",30 µm
same,measured mean distance from top of filter to front two PMNs,"[2]; Table I B, above 10^-8 M, below 10^-9 M, 80 min 37C",27 µm
same,calculated distance for purely random migration (bracketed),"[2]; Table I B, above 10^-9 M, below 10^-6 M",35 µm
same,measured mean distance from top of filter to front two PMNs,"[2]; Table I B, above 10^-9 M, below 10^-6 M, 80 min 37C",69 µm
same,calculated distance for purely random migration (bracketed),"[2]; Table I B, above 10^-9 M, below 10^-7 M",30 µm
same,measured mean distance from top of filter to front two PMNs,"[2]; Table I B, above 10^-9 M, below 10^-7 M, 80 min 37C",57 µm
same,calculated distance for purely random migration (bracketed),"[2]; Table I B, above 10^-9 M, below 10^-8 M",27 µm
same,measured mean distance from top of filter to front two PMNs,"[2]; Table I B, above 10^-9 M, below 10^-8 M, 80 min 37C",30 µm
same,nature of induced migration,[2],truly chemotactic
F-Met,induction of lysozyme release at highest concentrations,rabbit neutrophils [3],did not induce release
same,beta-Glucuronidase release Relative activity ± SE,rabbit neutrophils [4],> 0.00001
same,induction of beta-glucuronidase release at highest concentrations,rabbit neutrophils [4],did not induce release
F-Met-Leu,Lysozyme release Relative activity ± SE,"rabbit neutrophils [3]; Table III, relative to F-Met-Leu = 1.0",1
same,beta-Glucuronidase release Relative activity ± SE,rabbit neutrophils [4],1
same,effect on initial rates of erythrophagocytosis,neutrophils,inhibit
Met-Leu-Glu,times less active than F-Met-Leu-Phe,[1]; induced migration and enzyme release,26 million
same,induction of lysozyme release at highest concentrations,rabbit neutrophils [3],did not induce release
same,induction of beta-glucuronidase release at highest concentrations,rabbit neutrophils [4],did not induce release
F-Met-Leu-Arg,activity relative to F-Met-Leu as stated in running text,[1]; chemotactic activity,one-third
F-Leu-Trp-Met-Arg,drop in activity relative to F-Leu-Trp-Met,[1]; chemotactic activity,40 fold
F-Met-Met-Ala,activity relative to F-Met-Met (Discussion),[1]; chemotactic activity,essentially the same
same,activity relative to parent dipeptide F-Met-Met (Results),[1]; chemotactic activity,same activity
F-Met-His,chemotactic activity compared with F-Met-Leu,[5],distinctly less active
F-Met-Leu-Glu,"times as active as F-Met-Leu, experiment of Fig. 1",[1],0.71
Met-Phe-Leu,induction of lysozyme release at highest concentrations,rabbit neutrophils [3],did not induce release
same,beta-Glucuronidase release Relative activity ± SE,rabbit neutrophils [4],> 0.0001
same,induction of beta-glucuronidase release at highest concentrations,rabbit neutrophils [4],did not induce release
Met-Leu-Leu,induction of lysozyme release at highest concentrations,rabbit neutrophils [3],did not induce release
same,beta-Glucuronidase release Relative activity ± SE,rabbit neutrophils [4],> 0.0001
same,induction of beta-glucuronidase release at highest concentrations,rabbit neutrophils [4],did not induce release
F-Met-Leu-Phe,fold more active than the corresponding unformylated peptide,[1]; chemotactic activity,"approximately 10,000 fold"
same,activity relative to F-Met-Leu as stated in running text,[1]; chemotactic activity,"5,000 fold"
same,"times as active as F-Met-Leu, experiment of Fig. 1",[1],"7,300"
same,measured mean distance from top of filter to front two PMNs,"[2]; Table I A, uniform 1.66 x 10^-10 M above and below, 60 min 37C",71 µm
same,measured mean distance from top of filter to front two PMNs,"[2]; Table I A, uniform 1.85 x 10-11 M above and below, 60 min 37C",40 µm
same,measured mean distance from top of filter to front two PMNs,"[2]; Table I A, uniform 5 x 10^-10 M above and below, 60 min 37C",73 µm
same,measured mean distance from top of filter to front two PMNs,"[2]; Table I A, uniform 5.55 x 10-11 M above and below, 60 min 37C",60 µm
same,nature of induced migration,[2],truly chemotactic
Met-Leu-Phe,"times as active as F-Met-Leu, experiment of Fig. 1",[1],0.43
F-Met-Met-Phe,activity relative to parent dipeptide F-Met-Met (Results),[1]; chemotactic activity,"3,500-4,000 fold"
Met-Met-Ala,induction of lysozyme release at highest concentrations,rabbit neutrophils [3],did not induce release
same,beta-Glucuronidase release Relative activity ± SE,rabbit neutrophils [4],> 0.0001
same,induction of beta-glucuronidase release at highest concentrations,rabbit neutrophils [4],did not induce release
CC(C)C[C@H](NC=O)C(=O)O [F-leucine],chemotactic activity,[5]; not as active as F-methionine,chemotactic
F-Met-Glu,chemotactic activity compared with F-Met-Leu,[5],distinctly less active
F-Met-Phe-Leu,fold more active than the corresponding unformylated peptide,[1]; chemotactic activity,"around 3,000 fold"
F-Met-Leu-Leu,activity relative to F-Met-Leu as stated in running text,[1]; chemotactic activity,9 fold
